Data as given in ChEMBL document CHEMBL4732064, “Structure-activity relationship studies of phenothiazine derivatives as a new class of ferroptosis inhibitors together with the therapeutic effect in an ischemic stroke model” (Eur J Med Chem, 2021).
Calls of active or inactive are those of the source. The rule behind the calls is not given here.

Key:
Assay type in all cases: functional, cell-based
[1] = test system: HT-1080; assay: Inhibition of erastin-induced ferroptosis in human HT-1080 cells assessed as cell viability incubated for 48 hrs by MTT assay; details: HT-1080, 48 h
[2] = test system: HT-29; assay: Protection against TNFalpha/Smac-mimetic/Z-VAD-FMK-induced necroptosis in human HT-29 cells assessed as cell viability at 10 uM
[3] = test system: HT-1080; assay: Inhibition of H2O2-induced oxidative cell death in human HT-1080 cells at 10 uM incubated for 24 hrs
[4] = test system: HT-1080; assay: Inhibition of rotenone-induced oxidative cell death in human HT-1080 cells at 10 uM incubated for 24 hrs
[5] = test system: THP-1; assay: Protection against nigericin-induced pyroptosis in human THP-1 cells assessed as cell viability at 10 uM

SMILES	EC50 [1] [nM]	also measured
CC(c1ccc(Cl)cc1)c1ccc2c(c1)Nc1ccccc1S2 (configuration not stated)	16	–
CC(c1ccc(F)cc1)c1ccc2c(c1)Nc1ccccc1S2 (configuration not stated)	6	–
CCCN1c2ccccc2Sc2ccccc21	> 10000	–
COc1ccc(C(C)c2ccc3c(c2)Nc2ccccc2S3)cc1C (configuration not stated)	19	–
CN1c2ccccc2Sc2ccccc21	> 10000	–
CC(c1cc(F)cc(OCc2ccccc2)c1)c1ccc2c(c1)Nc1ccccc1S2 (configuration not stated)	60	–
CN1C(=O)C(Cc2c[nH]c3ccccc23)NC1=S (configuration not stated)	–	Activity [2]: Active
CC(c1ccc(Cl)c(Cl)c1)c1ccc2c(c1)Nc1ccccc1S2 (configuration not stated)	16	–
CC(c1ccccc1)c1ccc2c(c1)Nc1ccccc1S2 (configuration not stated)	4	–
CCOC(=O)c1cc(F)cc(C(C)c2ccc3c(c2)Nc2ccccc2S3)c1 (configuration not stated)	30	–
COc1cccc(N2CCN(S(=O)(=O)C(C)c3ccc4c(c3)Nc3ccccc3S4)CC2)c1 (configuration not stated)	57	–
CC(c1cccc(N2CCN(C)CC2)c1)c1ccc2c(c1)Nc1ccccc1S2 (configuration not stated)	9	–
CC(NC(=O)CCN1c2ccccc2Sc2ccccc21)C1CC1 (configuration not stated)	4040	–
Cc1ccc(C)c(NC(=O)CN(C)C(=O)CCN2c3ccccc3Sc3ccccc32)c1	5240	–
O=C(CN1CCCC1)N1c2ccccc2Sc2ccccc21	1130	–
CC(OC(=O)c1ccccc1)c1ccc2c(c1)Nc1ccccc1S2 (configuration not stated)	13	–
COc1ccccc1C(=O)N1c2ccccc2Sc2ccccc21	> 10000	–
CC(c1cccc(OCc2ccccc2)c1)c1ccc2c(c1)Nc1ccccc1S2 (configuration not stated)	25	–
CCOc1ccc(C(C)c2ccc3c(c2)Nc2ccccc2S3)cc1 (configuration not stated)	17	–
CS(=O)(=O)c1ccc2c(c1)Nc1ccccc1S2	195	–
CC(C)Oc1ccc(C(C)c2ccc3c(c2)Nc2ccccc2S3)cc1 (configuration not stated)	17	–
COc1cc(OC)cc(C(C)c2ccc3c(c2)Nc2ccccc2S3)c1 (configuration not stated)	13	–
CC(c1ccc2c(c1)Nc1ccccc1S2)S(=O)(=O)N1CCSCC1 (configuration not stated)	78	–
COc1cc(C(C)c2ccc3c(c2)Nc2ccccc2S3)ccc1F (configuration not stated)	25	–
C/C(=N\NC(=O)c1cccnc1)c1ccc2c(c1)Nc1ccccc1S2	71	–

SMILES	EC50 [1] [nM]	also measured
CCCCC(CC)CN1c2ccccc2Sc2ccccc21 (configuration not stated)	> 10000	–
N#Cc1ccc2c(c1)Nc1ccccc1S2	209	–
C/C(=N\NS(=O)(=O)c1ccc(C)cc1)c1ccc2c(c1)Nc1ccccc1S2	28	–
CC(C)N1CCN(S(=O)(=O)C(C)c2ccc3c(c2)Nc2ccccc2S3)CC1 (configuration not stated)	25	–
O=Cc1ccc2c(c1)Nc1ccccc1S2	142	–
CCOC(=O)c1ccc(NC2CCCCC2)c(N)c1	88	Activity [3]: inactive; Activity [2]: inactive; inhibition [4]: inactive
Cc1cc(C(C)c2ccc3c(c2)Nc2ccccc2S3)ccc1OCc1ccccc1 (configuration not stated)	71	–
CC(c1ccc(NC(=O)OC(C)(C)C)cc1)c1ccc2c(c1)Nc1ccccc1S2 (configuration not stated)	39	–
CC(=NNC(=O)c1ccco1)c1ccc2c(c1)Nc1ccccc1S2	17	–
CC(c1cccc(C(=O)OC(C)(C)C)c1)c1ccc2c(c1)Nc1ccccc1S2 (configuration not stated)	17	–
CCCOc1ccc(C(C)c2ccc3c(c2)Nc2ccccc2S3)cc1 (configuration not stated)	62	–
Cc1cccc(C(C)c2ccc3c(c2)Nc2ccccc2S3)c1 (configuration not stated)	5	–
CCc1ccc2c(c1)Nc1ccccc1S2	30	–
c1ccc(Cc2ccc3c(c2)Nc2ccccc2S3)cc1	17	–
CC(OC(=O)CCCN1C(=O)c2ccccc2C1=O)C(=O)N1c2ccccc2Sc2ccccc21 (configuration not stated)	439	–
CC(=O)c1ccc2c(c1)Nc1ccccc1S2	38	–
CC(=O)N1c2ccccc2Sc2ccccc21	1150	–
COc1ccc(OCC(=O)N2c3ccccc3Sc3ccccc32)cc1	145	–
COc1ccc(C(C)c2ccc3c(c2)Nc2ccccc2S3)cc1OC (configuration not stated)	7	–
CCc1cccc(C(C)c2ccc3c(c2)Nc2ccccc2S3)c1 (configuration not stated)	18	–
CC(c1cc(Cl)cc(Cl)c1)c1ccc2c(c1)Nc1ccccc1S2 (configuration not stated)	17	–
O=C(CCN1c2ccccc2Sc2ccccc21)N1CCN(CCO)CC1	> 10000	–
CC(c1cccc(NC(=O)OC(C)(C)C)c1)c1ccc2c(c1)Nc1ccccc1S2 (configuration not stated)	52	–
C/C(=N\NC(=O)c1ccccn1)c1ccc2c(c1)Nc1ccccc1S2	65	–
CC(c1cccc(C#N)c1)c1ccc2c(c1)Nc1ccccc1S2 (configuration not stated)	15	–

SMILES	EC50 [1] [nM]	also measured
CC(c1ccc(Cl)c(F)c1)c1ccc2c(c1)Nc1ccccc1S2 (configuration not stated)	19	–
Cc1ccc(SCC(=O)N2c3ccccc3Sc3ccccc32)cc1	> 10000	–
CC(c1ccc(C(C)(C)C)cc1)c1ccc2c(c1)Nc1ccccc1S2 (configuration not stated)	73	–
CCN(CC)CC(O)CN1c2ccccc2Sc2ccccc21 (configuration not stated)	4420	–
CC(c1ccc2c(c1)Nc1ccccc1S2)S(=O)(=O)N1CCN(c2ccc(F)cc2)CC1 (configuration not stated)	80	–
CC(c1ccc(OCc2ccccc2)cc1)c1ccc2c(c1)Nc1ccccc1S2 (configuration not stated)	14	–
CCOc1ccccc1C(=O)N/N=C(\C)c1ccc2c(c1)Nc1ccccc1S2	18	–
CC(c1ccc(C#N)cc1)c1ccc2c(c1)Nc1ccccc1S2 (configuration not stated)	6	–
CC(C)Cc1ccc(C(C)c2ccc3c(c2)Nc2ccccc2S3)cc1 (configuration not stated)	9	–
CC(c1cccc(F)c1)c1ccc2c(c1)Nc1ccccc1S2 (configuration not stated)	6	–
CC(c1ccc(N2CCOCC2)cc1)c1ccc2c(c1)Nc1ccccc1S2 (configuration not stated)	13	–
CSc1ccc2c(c1)Nc1ccccc1S2	64	–
CCc1ccc(C(C)c2ccc3c(c2)Nc2ccccc2S3)cc1 (configuration not stated)	20	–
CC(c1ccc(C(F)(F)F)cc1)c1ccc2c(c1)Nc1ccccc1S2 (configuration not stated)	6	–
CC(c1cccc(N2CCOCC2)c1)c1ccc2c(c1)Nc1ccccc1S2 (configuration not stated)	14	–
CC(OC(=O)CCN1c2ccccc2Sc2ccccc21)c1ccc(F)cc1 (configuration not stated)	> 10000	–
CC(c1ccc2c(c1)Nc1ccccc1S2)S(=O)(=O)N1CCN(c2ccc(F)cc2F)CC1 (configuration not stated)	80	–
O=C(c1ccncc1)N1c2ccccc2Sc2ccccc21	4470	–
CC(c1cccc(O)c1)c1ccc2c(c1)Nc1ccccc1S2 (configuration not stated)	5	–
CC1CCN(CC(=O)N2c3ccccc3Sc3ccccc32)CC1	2760	–
CC(c1ccc2c(c1)Nc1ccccc1S2)S(=O)(=O)N1CCN(C)CC1 (configuration not stated)	34	–
CC(C)Oc1cccc(C(C)c2ccc3c(c2)Nc2ccccc2S3)c1 (configuration not stated)	15	–
COc1cc(C(C)c2ccc3c(c2)Nc2ccccc2S3)ccc1Cl (configuration not stated)	22	–
CC(=O)c1cccc(NC(=O)CCN2c3ccccc3Sc3ccccc32)c1	4300	–
CC(c1ccc2c(c1)Nc1ccccc1S2)S(=O)(=O)N1CCN(S(C)(=O)=O)CC1 (configuration not stated)	35	–

SMILES	EC50 [1] [nM]	also measured
Cc1cnc(SCC(=O)N2c3ccccc3Sc3ccccc32)nc1	> 10000	–
CC(c1ccc(F)c(Cl)c1)c1ccc2c(c1)Nc1ccccc1S2 (configuration not stated)	5	–
CC(c1ccc(C(F)(F)F)c(Cl)c1)c1ccc2c(c1)Nc1ccccc1S2 (configuration not stated)	17	–
CC(C)(O)c1coc(S(=O)(=O)NC(=O)Nc2c3c(cc4c2CCC4)CCC3)c1	–	Activity [5]: Active
COC(=O)c1ccc(C(C)c2ccc3c(c2)Nc2ccccc2S3)cc1Cl (configuration not stated)	21	–
COc1cc(C(C)c2ccc3c(c2)Nc2ccccc2S3)ccc1C (configuration not stated)	22	–
CC(CN1c2ccccc2Sc2ccccc21)N(C)C (configuration not stated) [PROMETHAZINE]	264	–
FC(F)(F)c1ccc2c(c1)Nc1ccccc1S2	47	–
Cc1cc(C)cc(C(C)c2ccc3c(c2)Nc2ccccc2S3)c1 (configuration not stated)	21	–
CC(=O)c1ccccc1NC(=O)COC(=O)CCN1c2ccccc2Sc2ccccc21	> 10000	–
CC(C)c1cccc(C(C)c2ccc3c(c2)Nc2ccccc2S3)c1 (configuration not stated)	12	–
CCCCc1ccc(C(C)c2ccc3c(c2)Nc2ccccc2S3)cc1 (configuration not stated)	64	–
Cc1cc(Cl)cc(C(C)c2ccc3c(c2)Nc2ccccc2S3)c1 (configuration not stated)	24	–
OCc1ccc2c(c1)Nc1ccccc1S2	63	–
COc1ccc2c(c1)Nc1ccccc1S2	1750	–
CC(C)c1ccc(C(C)c2ccc3c(c2)Nc2ccccc2S3)cc1 (configuration not stated)	6	–
CC(c1cccc(Cl)c1)c1ccc2c(c1)Nc1ccccc1S2 (configuration not stated)	5	–
CC(c1ccc2c(c1)Nc1ccccc1S2)S(=O)(=O)N1CCOCC1 (configuration not stated)	67	–
c1ccc2c(c1)Nc1ccccc1S2 [PHENOTHIAZINE]	49	–
CC(c1ccc2c(c1)Nc1ccccc1S2)c1ccc(F)c(OCc2ccccc2)c1 (configuration not stated)	35	–
CCOc1cccc(C(C)c2ccc3c(c2)Nc2ccccc2S3)c1 (configuration not stated)	14	–
COCCNC(=O)N1c2ccccc2Sc2ccccc21	> 10000	–
C/C(=N\NC(=O)c1ccccc1C)c1ccc2c(c1)Nc1ccccc1S2	5	–
CCN1CCN(S(=O)(=O)C(C)c2ccc3c(c2)Nc2ccccc2S3)CC1 (configuration not stated)	32	–
